Results on 103 compounds are retold here after PubChem BioAssay AID1996.

Values after ≈ are worked out from the molar mass of the structure shown.

For the data set the following is noted: buffer; pH 7.4; 200.0 µM.
`O=C(COC(=O)Cc1cccc(C(F)(F)F)c1)NC(=O)NC1CCCC1` yielded a kinetic solubility of 32.1 µg/mL (≈ 86.2 µM).
The result for `Cc1occc1C(=O)Nc1cccc(S(=O)(=O)N2CCOCC2)c1` reads 52.2 µg/mL (≈ 149 µM); that for `O=C(COC(=O)C1CC(=O)N(Cc2ccco2)C1)Nc1nc(-c2ccc(F)cc2)cs1` (stereo not drawn), 16.9 µg/mL (≈ 38.1 µM).
Next, `CNC(=O)CSc1nc(SC)ns1`: above 35.3 µg/mL; `CN1C(=S)SC(C)(C)C1N(O)C(=O)Nc1ccc(Cl)cc1` (stereo not drawn): 4.2 µg/mL (≈ 12.1 µM).
Next, `CCOC(=O)C1(CCOc2ccccc2)CCN(CC2CC2)CC1`: 45.7 µg/mL (≈ 138 µM); `COc1ccc(NC(=O)c2oc3ccccc3c2CSC)cn1`: 3 µg/mL (≈ 9.14 µM).
Compound `Cc1c(C(=O)N2CCC(C)CC2)cccc1[N+](=O)[O-]` registered a solubility (kinetic) above 39.3 µg/mL.
For the compound `Cc1cc[n+](CC2OCc3ccccc3CO2)cc1.[Br-]`, the solubility (kinetic) is above 50.4 µg/mL.
Take `O=C(/C=C/c1ccco1)Oc1cccc2cccnc12`: the kinetic solubility stood at 27.1 µg/mL (≈ 102 µM).
Compound `CSCCC(NC(=O)C1CCCCC1)c1nc2ccccc2[nH]1` (stereo not drawn) displayed a kinetic solubility of 23 µg/mL (≈ 69.4 µM).
For the compound `Cc1ccc(NC(=O)c2ccc(Oc3ncccn3)cc2)cc1`, the kinetic solubility is 5 µg/mL (≈ 16.4 µM).
The result for `O=C(O)CC(NCc1ccco1)C(=O)OCCCl` (stereo not drawn) reads above 41.4 µg/mL; that for `COc1ccc(N2CCN(CC(=O)NC(=O)NC(C)(C)C)CC2)cc1`, 51.3 µg/mL (≈ 147 µM); that for `Br.CN1CCN(C(=O)Cc2ccccc2)CC1`, above 44.9 µg/mL.
`O=C(O)CCCC(=O)Nc1cccc([N+](=O)[O-])c1` showed a solubility (kinetic) above 37.8 µg/mL.
Compound `Oc1cccc(/C=N/NC(=S)Nc2cccnc2)c1O` had a solubility (kinetic) above 43.2 µg/mL.
In the case of `N#Cc1cn(N2CCCCC2)c(=O)[nH]c1=O`, the solubility (kinetic) is above 33 µg/mL.
Take `CN(C)CCOC(c1ccc(Cl)cc1)c1ccccn1.O=C(O)/C=C/C(=O)O` (stereo not drawn): the solubility (kinetic) was above 61 µg/mL.
The compound `Cn1nc(-c2ccc(Cl)cc2)cc1NC(=O)CCCC(=O)O` displayed a kinetic solubility above 48.3 µg/mL.
Next, `Cc1cc(N2CCOCC2)nc2ccc(NC(=S)NC(C)C)cc12`: 4.6 µg/mL (≈ 13.4 µM).
In turn, `CN(C)CCNC(=O)Cn1c(=O)c2cccn2c2ccc(F)cc21` displayed a kinetic solubility above 49.6 µg/mL.
In the case of `CCOc1nc(Nc2ccccc2)nc(OCC)n1`, the solubility (kinetic) turned out to be 38 µg/mL (≈ 146 µM).
`Cn1cc(/C=C2\C(=O)NC(=O)N(c3ccccc3)C2=O)c2ccccc21` yielded a solubility (kinetic) of 1.6 µg/mL (≈ 4.63 µM).
Take `CSC1=NCCN1C(=O)Cc1cccc2ccccc12`: the kinetic solubility came out at 20.4 µg/mL (≈ 71.7 µM).
On to `CC(=O)c1c(COC(=O)c2ccc(Cl)cc2)nc2ccccc2[n+]1[O-]`, for which the kinetic solubility came to 0.6 µg/mL (≈ 1.68 µM).
`CCN(Cc1ccncc1)Cc1ccc(Br)cc1.O=C(O)C(=O)O` came in with a kinetic solubility of 30.6 µg/mL.
Turning to `CCc1cc2c(CN(C)Cc3ccccc3F)cc(=O)oc2cc1O`, the solubility (kinetic) was found to be 9.5 µg/mL (≈ 27.8 µM).
Next, `CC(C)CC(N(C)C)C1(c2ccc(Cl)cc2)CCC1.Cl` (stereo not drawn): below 0.7 µg/mL; `COc1cccc(-n2c(O)c(C=NCCN3CCNCC3)c(=O)[nH]c2=S)c1`: above 58.4 µg/mL.
`Cc1noc(C)c1S(=O)(=O)Nc1ccc(C(C)C)cc1` displayed a solubility (kinetic) above 44.2 µg/mL.
`Cc1oc(C(C)(C)C)cc1C(=O)N1CCN(c2ccc(C(F)(F)F)cn2)CC1` gave a solubility (kinetic) of 6.4 µg/mL (≈ 16.2 µM).
Compound `COc1ccc(CC(=O)Nc2ccc(OC(C)=O)cc2C(=O)O)cc1` yielded a solubility (kinetic) above 51.5 µg/mL.
For `O=C(CCOc1ccc(F)cc1)Nc1nccs1`, the kinetic solubility turned out to be 5.6 µg/mL (≈ 21 µM).
Next, `COc1ccc(CCNC(=O)c2cccnc2Cl)cc1OC`: above 48.1 µg/mL; `CCCCOc1ccccc1C1NC(=O)CCC1[N+](=O)[O-]` (stereo not drawn): above 43.9 µg/mL; `COc1ccc(CNCc2ccncc2)cc1OC.Cl`: above 44.2 µg/mL.
For `CC(=O)Nc1ccc(OC(=O)N(C)c2ccc(C)cc2)cc1`, the kinetic solubility is above 44.8 µg/mL.
The compound `O=C(CNS(=O)(=O)c1ccc(F)c(Cl)c1)N1CCCC1` had a kinetic solubility of 44.1 µg/mL (≈ 137 µM).
In turn, `COc1ccc(CNC(=O)COC(=O)c2cc(C)nc3ccccc23)cc1` yielded a kinetic solubility of 18.3 µg/mL (≈ 50.2 µM).
As for `O=C(C[n+]1ccccc1)Nc1ccccc1[N+](=O)[O-].[Cl-]`, the solubility (kinetic) is 34 µg/mL.
Compound `CCOc1ccccc1C(=O)NN1CCOCC1` gave a solubility (kinetic) above 37.5 µg/mL.
In turn, `COc1ccc(CNC(=O)CCCSc2ccccc2)cc1` had a kinetic solubility of 2.4 µg/mL (≈ 7.61 µM).
For `O=C(COC(=O)c1ccccc1O)NC1CCCc2ccccc21` (stereo not drawn), the kinetic solubility came to 4.6 µg/mL (≈ 14.1 µM).
Next, `O=C(NCCNC(=O)c1ccccn1)c1ccccc1`: 36 µg/mL (≈ 134 µM); `COc1ccc(C(=O)COC(=O)c2ccccn2)cc1OC`: 44.5 µg/mL (≈ 148 µM); `CC(=O)Nc1ccc2c(c1)nc(CCN1CCN(c3ccccn3)CC1)n2C`: below 0.1 µg/mL.
The result for `O=C(NN1C(=O)C2C3C=CC(C3)C2C1=O)C(O)c1ccccc1` (stereo not drawn) reads above 46.8 µg/mL; that for `CC1CCc2c(sc(NC(=O)C3=COCCO3)c2C(N)=O)C1` (stereo not drawn), 6.3 µg/mL (≈ 19.5 µM); that for `COC(=O)C1CCN(C(=O)c2ccc(Cl)c(S(=O)(=O)NCc3ccco3)c2)CC1`, 53.6 µg/mL (≈ 122 µM).
Regarding `Cc1ccccc1OC(C)C(=O)Nc1cccnc1` (stereo not drawn), the kinetic solubility came out at 36.6 µg/mL (≈ 143 µM).
In the case of `COc1cccc2cc(C(=O)OCC(=O)N3CC(C)OC(C)C3)c(=O)oc12` (stereo not drawn), the kinetic solubility is above 56.3 µg/mL.
Compound `CC(NC(=O)COc1ccccc1)C(=O)NCc1ccccc1Cl` (stereo not drawn) registered a solubility (kinetic) above 52 µg/mL.
`CCN(CC(=O)NCc1ccc(F)cc1)C(=O)C1CC1C` (stereo not drawn) showed a kinetic solubility above 43.9 µg/mL.
On to `CCOc1ccc(S(=O)(=O)N2CCN(C(=O)c3cc4ccccc4o3)CC2)cc1`, for which the kinetic solubility came to 6 µg/mL (≈ 14.5 µM).
For `O=C(Nc1ccccc1F)c1ccc(-c2cccc([N+](=O)[O-])c2)o1`, the solubility (kinetic) is 2 µg/mL (≈ 6.13 µM).
`COc1ccccc1C1CCN(Cc2ccc(Cl)cc2Cl)CC1` showed a solubility (kinetic) below 0.8 µg/mL.
Compound `CC1C(=O)C(C)(C)C(=O)OC1c1ccc([N+](=O)[O-])cc1` (stereo not drawn) registered a kinetic solubility of 12.4 µg/mL (≈ 44.7 µM).
In turn, `N/C(=N\OCC(=O)Nc1ccc(F)c(Cl)c1)c1ccccc1` gave a kinetic solubility above 48.3 µg/mL.
Compound `COc1cc2cc(C(=O)N(C)Cc3ccccc3)[nH]c2cc1OC` had a solubility (kinetic) of 0.7 µg/mL (≈ 2.16 µM).
Regarding `CCCC(=O)OCC(=O)NCc1ccc(Cl)cc1`, the solubility (kinetic) amounted to 35.8 µg/mL (≈ 133 µM).
Compound `Cl.c1cc(CNC23CC4CC(CC(C4)C2)C3)ccn1` showed a kinetic solubility above 47.3 µg/mL.
The result for `CCN(CC)CCNC(=O)c1cc2cc3ccc(OC)cc3nc2o1` reads 45.9 µg/mL (≈ 134 µM).
`CC(C)CC(=O)N1CCN(Cc2cccc(Cl)c2)CC1` came in with a kinetic solubility of 24.8 µg/mL (≈ 84.1 µM).
The result for `Cc1onc(-c2c(F)cccc2Cl)c1C(=O)NCCO` reads above 44.8 µg/mL; that for `CC(C)C1(CCNC(=O)c2cccs2)CCOC(C)(C)C1` (stereo not drawn), 42 µg/mL (≈ 136 µM).
Turning to `CC(NC(=O)c1cnc2ccccc2n1)c1ccccc1` (stereo not drawn), the solubility (kinetic) was 33.7 µg/mL (≈ 122 µM).
In the case of `COc1cccc(C2CC(=O)Nc3cc(OC)c(OC)cc32)c1` (stereo not drawn), the solubility (kinetic) came to 20.3 µg/mL (≈ 64.8 µM).
The compound `Cc1ccc(NC(=O)c2ccc(OCc3c(C)noc3C)cc2)cc1` registered a solubility (kinetic) below 0.4 µg/mL.
The result for `CC(=O)Nc1cccc(NC(=O)CCCC2CCCCC2)c1` reads 3 µg/mL (≈ 9.92 µM); that for `CC(C)Oc1ccc(C(=O)OCC(=O)c2ccc[nH]2)cc1`, 15.1 µg/mL (≈ 52.6 µM); that for `Cc1cnc(NC(=O)Cc2ccccc2Cl)s1`, 1.1 µg/mL (≈ 4.12 µM).
Regarding `C[C@H](NC(=O)c1ccco1)C(=O)OCC(=O)N1CC(=O)Nc2ccccc21`, the solubility (kinetic) is above 55.7 µg/mL.
With `O=[N+]([O-])c1cccc(/C=C/c2ccncc2)c1`, the solubility (kinetic) turned out to be 11.9 µg/mL (≈ 52.6 µM).
Consider `Cc1ccc(C(=O)NC2CCc3ccccc3C2=O)cc1` (stereo not drawn), for which the solubility (kinetic) stood at 5.8 µg/mL (≈ 20.8 µM).
`O=C(CSc1nc2ccccc2c(=O)[nH]1)Nc1ccccc1O`: the kinetic solubility came to 3.8 µg/mL (≈ 11.6 µM).
`COC(=O)c1ccccc1NC(=O)c1cc(-c2ccco2)on1` returned a solubility (kinetic) of 0.6 µg/mL (≈ 1.92 µM).
Turning to `Cc1ccccc1OCCNC(=O)c1ccco1`, the solubility (kinetic) is above 36.8 µg/mL.
Compound `O=C(c1ccccc1)C1CN(Cc2ccccc2)CCC1(O)c1ccccc1` (stereo not drawn) had a kinetic solubility of 10.4 µg/mL (≈ 28 µM).
`COc1ccc(Cl)cc1/C=C(\C#N)C(N)=O` gave a solubility (kinetic) above 35.5 µg/mL.
In turn, `COCc1nc2ccccc2n1Cc1c(F)cccc1Cl` came in with a kinetic solubility above 45.7 µg/mL.
`COc1ccccc1NCC(=O)c1ccc(Cl)cc1` had a solubility (kinetic) of 4.7 µg/mL (≈ 17 µM).
As to `O=C(COc1ccc(S(=O)(=O)NC2CCCCC2)cc1)NC1CC1`, the solubility (kinetic) is above 52.9 µg/mL.
With `NC(=O)CN1C(=O)C(=O)N(Cc2ccccc2Cl)C1=O`, the solubility (kinetic) is above 44.4 µg/mL.
As to `O=Cc1c(NCc2cccc(F)c2)c2ccccc2[nH]c1=O`, the kinetic solubility stood at 19.8 µg/mL (≈ 66.8 µM).
The result for `COC(=O)CCC(=O)NC(=S)Nc1ccc(S(=O)(=O)Nc2cc(C)on2)cc1` reads 57.4 µg/mL (≈ 135 µM); that for `Cn1c(-c2ccc(Cl)nc2)nc2cc(Cl)ccc21`, 6.6 µg/mL (≈ 23.7 µM).
Compound `CC(C)CCNC(=O)c1ccc2c(c1)ncn2C1CCCC1` showed a solubility (kinetic) above 44.9 µg/mL.
Compound `O=C1/C(=C/c2ccccn2)SC(=S)N1Cc1ccccc1` came in with a solubility (kinetic) below 0.3 µg/mL.
Turning to `COc1ccc(NC(=O)COC(=O)CCC2CCCCC2)cc1`, the solubility (kinetic) turned out to be 19.4 µg/mL (≈ 60.7 µM).
With `COc1ccc(NC(=O)c2cc([N+](=O)[O-])ccc2N2CCCCC2)cc1OC`, the kinetic solubility was 14 µg/mL (≈ 36.3 µM).
Next, `O=C1CSC(=Nc2ccc(Cl)cc2)N1Cc1cccnc1`: 8.3 µg/mL (≈ 26.1 µM); `Cc1cccc(CN2CCN(c3ccc(Cl)cc3)CC2)c1`: 2 µg/mL (≈ 6.65 µM); `O=c1oc(/C=C/c2ccccc2)nc2ccccc12`: 0.7 µg/mL (≈ 2.81 µM).
For the compound `O=[N+]([O-])c1ccc(Oc2cccnc2)nc1`, the solubility (kinetic) came to 25.5 µg/mL (≈ 117 µM).
`O=C(/C=C/c1ccc(Cl)c(Cl)c1)N1CCOCC1`: the kinetic solubility came to 35.5 µg/mL (≈ 124 µM).
On to `C=C(C)COc1ccc(C2NC(=O)c3ccccc3O2)cc1OCC` (stereo not drawn), for which the solubility (kinetic) turned out to be 1.9 µg/mL (≈ 5.6 µM).
Next, `C=CCSc1nc2c(c(=O)[nH]c(=O)n2C)n1Cc1ccccc1`: 3.9 µg/mL (≈ 11.9 µM); `Nc1cc(=O)[nH]c(SCC(=O)NC2CCCCCCC2)n1`: above 46.6 µg/mL; `COc1ccc(NC(=O)c2cc3ccc(O)cc3o/c2=N\O)cc1`: below 0.3 µg/mL.
With `C=CCN1CCN(C(=O)c2ccc(-c3ccccc3)cc2)CC1`, the solubility (kinetic) came to 32.3 µg/mL (≈ 105 µM).
`COc1cc(NC(=O)Nc2cccc3cccnc23)cc(OC)c1OC`: the kinetic solubility stood at 0.4 µg/mL (≈ 1.13 µM).
`COc1ccccc1NC(=O)COC(=O)C1CC(=O)N(c2ccc3c(c2)OCCO3)C1` (stereo not drawn) had a solubility (kinetic) of 37.8 µg/mL (≈ 88.6 µM).

For orientation: kinetic solubility means solubility judged after dilution from a stock solution rather than from solid.
